From patent US20140187548A1, “6 SUBSTITUTED IMIDAZOPYRAZINES FOR USE AS MPS-1 AND TKK INHIBITORS IN THE TREATMENT OF HYPERPROLIFERATIVE DISORDERS” (BAYER INTELLECTUAL PROPERTY GMBH, priority 2010, published 2014) come the findings set out here.

The assay has as its target T1, human kinase Mps-1 (Homo sapiens, UniProt P33981).
T1 construct: N-terminally GST-tagged human full length recombinant Mps-1 kinase; GST (N); purchased Invitrogen, Karslruhe, Germany PV4071
T1 sequence (P33981 1-857): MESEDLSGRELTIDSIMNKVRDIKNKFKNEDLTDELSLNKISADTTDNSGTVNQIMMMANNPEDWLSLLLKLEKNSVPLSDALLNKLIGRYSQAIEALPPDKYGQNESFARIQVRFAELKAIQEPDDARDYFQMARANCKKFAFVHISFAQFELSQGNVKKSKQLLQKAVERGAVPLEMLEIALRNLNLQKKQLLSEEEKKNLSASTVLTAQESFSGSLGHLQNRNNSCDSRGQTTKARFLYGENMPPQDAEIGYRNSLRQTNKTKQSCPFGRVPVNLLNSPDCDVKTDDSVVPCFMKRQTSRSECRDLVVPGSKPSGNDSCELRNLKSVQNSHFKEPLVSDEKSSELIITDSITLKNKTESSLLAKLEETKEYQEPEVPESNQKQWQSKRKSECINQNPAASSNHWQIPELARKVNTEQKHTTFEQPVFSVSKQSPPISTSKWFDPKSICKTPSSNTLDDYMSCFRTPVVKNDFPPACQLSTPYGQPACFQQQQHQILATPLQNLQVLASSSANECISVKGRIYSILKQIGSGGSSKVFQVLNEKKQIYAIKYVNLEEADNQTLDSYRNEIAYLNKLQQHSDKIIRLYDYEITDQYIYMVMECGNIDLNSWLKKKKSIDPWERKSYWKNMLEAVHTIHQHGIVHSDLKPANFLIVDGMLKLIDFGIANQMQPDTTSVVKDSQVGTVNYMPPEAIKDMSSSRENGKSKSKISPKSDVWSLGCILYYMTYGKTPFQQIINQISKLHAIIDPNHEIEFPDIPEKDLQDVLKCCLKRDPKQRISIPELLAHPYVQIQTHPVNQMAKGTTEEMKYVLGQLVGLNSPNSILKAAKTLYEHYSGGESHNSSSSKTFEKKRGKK
Description: Mps-1 kinase assay (TR-FRET). The assay is classed as biochemical. Conditions: N-terminally GST-tagged human full length recombinant Mps-1; 10 μM ATP; 1 μM peptide substrate; 15 min pre-incubation; 60 min at 22° C. How it is done:
The human kinase Mps-1 phosphorylates a biotinylated substrate peptide. Detection of the phosphorylated product is achieved by time-resolved fluorescence resonance energy transfer (TR-FRET) from Europium-labelled anti-phospho-Serine/Threonine antibody as donor to streptavidin labelled with cross-linked allophycocyanin (SA-XLent) as acceptor. Compounds are tested for their inhibition of the kinase activity.
N-terminally GST-tagged human full length recombinant Mps-1 kinase (purchased from Invitrogen, Karslruhe, Germany, cat. no PV4071) was used. As substrate for the kinase reaction a biotinylated peptide of the amino-acid sequence […] (C-terminus in amide form, purchased from Biosynthan GmbH, Berlin) was used.
The concentration of Mps-1 in the assay was adjusted to the activity of the enzyme lot and was chosen appropriate to have the assay in the linear range, typical enzyme concentrations were in the range of about 1 nM (final conc. in the 5 μl assay volume).
The resulting mixture was incubated 1 h at 22° C. to allow the binding of the phosphorylated peptide to the anti-phospho(Ser/Thr)-Europium-antibody. Subsequently the amount of phosphorylated substrate was evaluated by measurement of the resonance energy transfer from the Europium-labelled anti-phospho(Ser/Thr) antibody to the Streptavidin-XLent. Therefore, the fluorescence emissions at 620 nm and 665 nm after excitation at 350 nm was measured in a Viewlux TR-FRET reader (PerkinElmer LAS, Rodgau-Jügesheim, Germany). The “blank-corrected normalized ratio” (a Viewlux specific readout, similar to the traditional ratio of the emissions at 665 nm and at 622 nm, in which blank and Eu-donor crosstalk are subtracted from the 665 nm signal before the ratio is calculated) was taken as the measure for the amount of phosphorylated substrate.
As for `CC(C)CNc1nc(-c2ccc(C(F)(F)F)cc2)cn2c(-c3ccc(C(=O)NC4CC4)cc3)cnc12` [Example 1-36, N-cyclopropyl-4-{8-[(2-methylpropyl)amino]-6-[4-(trifluoromethyl)phenyl]imidazo[1,2-a]pyrazin-3-yl}benzamide], the IC50 is 30 nM.

Consider `CC(C)CNc1nc(-c2cccc(Cl)c2)cn2c(-c3ccc(C(=O)NC4CC4)cc3)cnc12` [Example 1-37, 4-{6-(3-chlorophenyl)-8-[(2-methylpropyl)amino]imidazo[1,2-a]pyrazin-3-yl}-N-cyclopropyl-benzamide], for which the IC50 came to 15.2 nM.

`COc1cccc(-c2cn3c(-c4ccc(C(=O)NC5CC5)cc4)cnc3c(NCC(C)C)n2)c1` [Example 1-38, N-cyclopropyl-4-{6-(3-methoxyphenyl)-8-[(2-methylpropyl)amino]imidazo[1,2-a]pyrazin-3-yl}benzamide]: the concentration for half-maximal inhibition (IC50) is 4.8 nM.

On to `Cc1cc(C)cc(-c2cn3c(-c4ccc(C(=O)NC5CC5)cc4)cnc3c(NCC(C)C)n2)c1` [Example 1-39, N-cyclopropyl-4-{6-(3,5-dimethylphenyl)-8-[(2-methylpropyl)amino]imidazo[1,2-a]pyrazin-3-yl}benzamide], for which the half-inhibitory concentration (IC50) was determined as 32.3 nM.

With `CC(C)CNc1nc(-c2cccc(F)c2)cn2c(-c3ccc(C(=O)NC4CC4)cc3)cnc12` [Example 1-40, N-cyclopropyl-4-{6-(3-fluorophenyl)-8-[(2-methylpropyl)amino]imidazo[1,2-a]pyrazin-3-yl}benzamide], the IC50 is 6.9 nM.

As for `COc1ccccc1-c1cn2c(-c3ccc(C(=O)NC4CC4)cc3)cnc2c(NCC(C)C)n1` [Example 1-41, N-cyclopropyl-4-{6-(2-methoxyphenyl)-8-[(2-methylpropyl)amino]imidazo[1,2-a]pyrazin-3-yl}benzamide], the half-inhibitory concentration (IC50) was 7.4 nM.

For the compound `CC(C)CNc1nc(-c2ccc3ccccc3c2)cn2c(-c3ccc(C(=O)NC4CC4)cc3)cnc12` [Example 1-42, N-cyclopropyl-4-{8-[(2-methylpropyl)amino]-6-(naphthalen-2-yl)imidazo[1,2-a]pyrazin-3-yl}benzamide], the IC50 was 49 nM.

Turning to `CC(C)CNc1nc(-c2ccccc2C(F)(F)F)cn2c(-c3ccc(C(=O)NC4CC4)cc3)cnc12` [Example 1-43, N-cyclopropyl-4-{8-[(2-methylpropyl)amino]-6-[2-(trifluoromethyl)phenyl]imidazo[1,2-a]pyrazin-3-yl}benzamide], the IC50 was found to be 16.3 nM.

As to `CCOc1cccc(-c2cn3c(-c4ccc(C(=O)NC5CC5)cc4)cnc3c(NCC(C)C)n2)c1` [Example 1-44, N-cyclopropyl-4-{6-(3-ethoxyphenyl)-8-[(2-methylpropyl)amino]imidazo[1,2-a]pyrazin-3-yl}benzamide], the IC50 turned out to be 5.8 nM.

Turning to `CC(C)CNc1nc(-c2ccc(Cl)c(Cl)c2)cn2c(-c3ccc(C(=O)NC4CC4)cc3)cnc12` [Example 1-45, N-cyclopropyl-4-{6-(3,4-dichlorophenyl)-8-[(2-methylpropyl)amino]imidazo[1,2-a]pyrazin-3-yl}benzamide], the concentration for half-maximal inhibition (IC50) is 22.6 nM.

On to `CC(=O)c1cccc(-c2cn3c(-c4ccc(C(=O)NC5CC5)cc4)cnc3c(NCC(C)C)n2)c1` [Example 1-46, 4-{6-(3-acetylphenyl)-8-[(2-methylpropyl)amino]imidazo[1,2-a]pyrazin-3-yl}-N-cyclo-propylbenzamide], for which the IC50 was 2.3 nM.

On to `CC(C)CNc1nc(-c2ccc(Oc3ccccc3)cc2)cn2c(-c3ccc(C(=O)NC4CC4)cc3)cnc12` [Example 1-47, N-cyclopropyl-4-{8-[(2-methylpropyl)amino]-6-(4-phenoxyphenyl)imidazo[1,2-a]pyrazin-3-yl}benzamide], for which the half-maximal inhibitory concentration (IC50) turned out to be 78.9 nM.

With `CC(=O)c1ccc(-c2cn3c(-c4ccc(C(=O)NC5CC5)cc4)cnc3c(NCC(C)C)n2)cc1` [Example 1-48, 4-{6-(4-acetylphenyl)-8-[(2-methylpropyl)amino]imidazo[1,2-a]pyrazin-3-yl}-N-cyclopropyl-benzamide], the IC50 turned out to be 1.1 nM.

Turning to `CC(C)CNc1nc(-c2ccc(-c3ccccc3)cc2)cn2c(-c3ccc(C(=O)NC4CC4)cc3)cnc12` [Example 1-49, 4-{6-(biphenyl-4-yl)-8-[(2-methylpropyl)amino]imidazo[1,2-a]pyrazin-3-yl}-N-cyclopropyl-benzamide], the IC50 was 7.2 nM.

For `CC(C)CNc1nc(-c2ccc(C(C)(C)C)cc2)cn2c(-c3ccc(C(=O)NC4CC4)cc3)cnc12` [Example 1-50, 4-{6-(4-tert-butylphenyl)-8-[(2-methylpropyl)amino]imidazo[1,2-a]pyrazin-3-yl}-N-cyclo-propylbenzamide], the IC50 worked out at 75.4 nM.

As for `CC(C)CNc1nc(-c2ccccc2F)cn2c(-c3ccc(C(=O)NC4CC4)cc3)cnc12` [Example 1-51, N-cyclopropyl-4-{6-(2-fluorophenyl)-8-[(2-methylpropyl)amino]imidazo[1,2-a]pyrazin-3-yl}benzamide], the IC50 worked out at 3.7 nM.

As to `CC(C)CNc1nc(-c2ccc(OC(F)(F)F)cc2)cn2c(-c3ccc(C(=O)NC4CC4)cc3)cnc12` [Example 1-52, N-cyclopropyl-4-{8-[(2-methylpropyl)amino]-6-[4-(trifluoromethoxy)phenyl]imidazo[1,2-a]pyrazin-3-yl}benzamide], the IC50 was 31.4 nM.

Consider `CC(C)CNc1nc(-c2ccc(C(=O)Nc3ccccc3)cc2)cn2c(-c3ccc(C(=O)NC4CC4)cc3)cnc12` [Example 1-53, 4-{3-[4-(cyclopropyl-carbamoyl)phenyl]-8-[(2-methylpropyl)amino]imidazo[1,2-a]pyrazin-6-yl}-N-phenylbenzamide], for which the IC50 worked out at 2.1 nM.

Turning to `CC(C)CNc1nc(-c2cccc(C(=O)N3CCCC3)c2)cn2c(-c3ccc(C(=O)NC4CC4)cc3)cnc12` [Example 1-54, N-cyclopropyl-4-{8-[(2-methylpropyl)amino]-6-[3-(pyrrolidin-1-yl-carbonyl)phenyl]imidazo [1,2-a]pyrazin-3-yl} benzamide], the half-maximal inhibitory concentration (IC50) is 6.2 nM.

As for `CC(C)CNc1nc(-c2cccc(C(=O)NCc3ccccc3)c2)cn2c(-c3ccc(C(=O)NC4CC4)cc3)cnc12` [Example 1-55, N-benzyl-3-{3-[4-(cyclo-propylcarbamoyl)phenyl]-8-[(2-methylpropyl)amino]imidazo[1,2-a]pyrazin-6-yl}benzamide], the 50% inhibitory concentration (IC50) came out at 4.6 nM.

With `CC(C)CNc1nc(-c2cccc(C(=O)NC3CC3)c2)cn2c(-c3ccc(C(=O)NC4CC4)cc3)cnc12` [Example 1-56, N-cyclopropyl-3-{3-[4-(cyclopropylcarbamoyl)phenyl]-8-[(2-methylpropyl)amino]imidazo [1,2-a]pyrazin-6-yl} benzamide], the concentration for half-maximal inhibition (IC50) came out at 1.6 nM.

On to `CC(C)CNc1nc(-c2cccc(C(=O)Nc3ccccc3)c2)cn2c(-c3ccc(C(=O)NC4CC4)cc3)cnc12` [Example 1-57, 3-{3-[4-(cyclopropyl-carbamoyl)phenyl]-8-[(2-methylpropyl)amino]imidazo[1,2-a]pyrazin-6-yl}-N-phenylbenzamide], for which the concentration for half-maximal inhibition (IC50) was determined as 10.4 nM.

`CC(C)CNc1nc(-c2ccc(OC(C)C)cc2)cn2c(-c3ccc(C(=O)NC4CC4)cc3)cnc12` [Example 1-58, N-cyclopropyl-4-{8-[(2-methylpropyl)amino]-6-[4-(propan-2-yloxy)phenyl]imidazo[1,2-a]pyrazin-3-yl}benzamide]: the concentration for half-maximal inhibition (IC50) came out at 27 nM.

For the compound `CC(C)CNc1nc(-c2ccc(C(C)C)cc2)cn2c(-c3ccc(C(=O)NC4CC4)cc3)cnc12` [Example 1-59, N-cyclopropyl-4-{8-[(2-methylpropyl)amino]-6-[4-(propan-2-yl)phenyl]imidazo[1,2-a]pyrazin-3-yl}benzamide], the IC50 was 55.7 nM.
